Holding throughout (assay): growth of human tumour cells (NCI), 48 h
Assay [1] has as its system A549.
Assay [2] relates to CCRF-CEM.
Assay [3] concerns COLO 205.
For assay [4], the system named is HCT-116.
Assay [5] has as its system HL-60.
The subject of assay [6] is HOP-92.
Assay [7] relates to IGROV-1.
Assay [8] has as its system K562.
In assay [9] the test system is KM12.
Assay [10] relates to MOLT-4.
The subject of assay [11] is NCI-H226.
In assay [12] the test system is OVCAR-8.
Assay [13] concerns SF-295.
Assay [14] has as its system SK-MEL-28.
Assay [15] deals with SK-OV-3.
In assay [16] the test system is SNB-19.
Assay [17] deals with SW-620.
For assay [18], the system named is U-251.
Assay [19] concerns UACC-62.
Assay [20] concerns UO-31.

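These data come from cells grown in 96-well plates and exposed to compound for 48 hours at five concentrations. At the GI50, growth is halved.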 The source made the active and inactive calls. Cut-off read from the data, not from the text of the source: active = GI50 up to about 1.1 µM and inactive = higher.

Regarding `Nc1nc(SCCNC(=O)CCc2ccc(O)c(I)c2)nc2c1ncn2C1OC(CO)C(O)C1O` (configuration not stated), the GI50 in [1], in assay [2], in assay [3], in [4], in [5] and in [6] was > 100 µM (inactive) throughout. Also, the GI50 in assay [7], in assay [8], in assay [9], in assay [10], in assay [11] and in assay [12] was > 100 µM (inactive) throughout. In addition, the GI50 in [13], in [14], in assay [15], in assay [16], in assay [17] and in assay [18] was > 100 µM (inactive) throughout. Also, in [19], the GI50 is > 100 µM (inactive).
On to `N=C(N)Nc1ncccc1[N+](=O)[O-]`, for which the GI50 is > 100 µM (inactive) in assay [1]; > 100 µM (inactive) in [2]; 21.8 µM (inactive) in [3]; 38.4 µM (inactive) in [4]; 19.7 µM (inactive) in [5]; > 100 µM (inactive) in [6]. For the same molecule, the GI50 in [7] is > 93.8 µM (inactive); in [8], > 100 µM (inactive); in assay [9] it was 57.4 µM (inactive); in assay [10], > 100 µM (inactive); in assay [11] it was > 100 µM (inactive); in [12], > 88.3 µM (inactive). Also, the GI50 in assay [13] was > 100 µM (inactive); in assay [14], > 100 µM (inactive); in assay [15], > 100 µM (inactive); in assay [16], > 100 µM (inactive); in [17] it was > 100 µM (inactive); in assay [18], > 31.6 µM (inactive). Further, the GI50 in assay [19] and in [20] was > 100 µM (inactive) each time.
For the molecule `C/N=c1/ssc(=S)n1C(C)C`, the GI50 was 25.6 µM (inactive) in assay [1]; 0.673 µM (active) in [2]; 16.1 µM (inactive) in assay [3]; 19.7 µM (inactive) in [4]; 2.3 µM (inactive) in assay [5]; 14.3 µM (inactive) in [6]. Also, the GI50 in [7] is 17.5 µM (inactive); in assay [8] it was 3.06 µM (inactive); in [9], 25.2 µM (inactive); in assay [10] it was 10.8 µM (inactive); in assay [11] it was 56.2 µM (inactive); in [12], 25.6 µM (inactive). Also, the GI50 is 33.9 µM (inactive) in [13]; 1.4 µM (inactive) in [14]; > 100 µM (inactive) in assay [16]; 4.24 µM (inactive) in [17]; 12 µM (inactive) in [19]; 37.7 µM (inactive) in assay [20].
As for `CSc1nc(NC2OCC(O)C(O)C2O)c(N)c(=O)[nH]1` (configuration not stated), the GI50 in assay [1], in [2], in assay [3], in assay [4], in [5] and in assay [6] was > 100 µM (inactive) throughout. In addition, the GI50 in assay [7], in assay [8], in [9], in assay [10], in [11] and in assay [12] was > 100 µM (inactive) each time. Further, the GI50 in assay [13], in [14], in [15], in [16], in assay [17] and in assay [18] was > 100 µM (inactive) throughout. Besides, the GI50 in [19] and in assay [20] was > 100 µM (inactive) throughout.
As to `O=c1c(Cc2c(O)oc3cc(O)ccc3c2=O)c(O)oc2cc(O)ccc12`, the GI50 in assay [1] was > 100 µM (inactive); in [2], 56 µM (inactive); in assay [3] it was > 100 µM (inactive); in [4] it was > 100 µM (inactive); in assay [5] it was > 100 µM (inactive); in [6], > 100 µM (inactive). The GI50 was > 100 µM (inactive) in [7]; 64.9 µM (inactive) in assay [8]; > 100 µM (inactive) in [10]; > 100 µM (inactive) in assay [11]; > 100 µM (inactive) in [12]; > 100 µM (inactive) in [13]. Also, the GI50 in [14], in assay [15], in assay [16], in assay [17], in [18] and in assay [19] was > 100 µM (inactive) throughout. Besides, the GI50 in [20] was 31.9 µM (inactive).
With `O=C(O[C@@H](/C=C/c1ccccc1)P1(=O)N(Cc2ccccc2)[C@H]2CCCC[C@@H]2N1Cc1ccccc1)c1ccccc1`, the GI50 in assay [1] was 3.61 µM (inactive); in assay [2], 3.03 µM (inactive); in assay [3], 1.7 µM (inactive); in assay [4], 3.02 µM (inactive); in [5], 2.39 µM (inactive); in [6] it was 2.86 µM (inactive). Besides, the GI50 in assay [7] was 4.79 µM (inactive); in [8], 3.47 µM (inactive); in [9] it was 3.41 µM (inactive); in assay [11] it was 2.79 µM (inactive); in assay [12], 4.3 µM (inactive); in assay [13], 3.15 µM (inactive). For the same molecule, the GI50 in [14] was 7.78 µM (inactive); in assay [15], 4.54 µM (inactive); in [16], 5.81 µM (inactive); in assay [17], 3.69 µM (inactive); in assay [18], 2.45 µM (inactive); in assay [19], 2.12 µM (inactive). The GI50 in assay [20] was 3.01 µM (inactive).
As for `CCCCOc1ccc(OCCCCCCCCCC[N+](C)(C)C)cc1`, the GI50 is 3.55 µM (inactive) in assay [1]; 1.28 µM (inactive) in [2]; 1.24 µM (inactive) in assay [3]; 2.34 µM (inactive) in [4]; 0.39 µM (active) in assay [5]; 1.33 µM (inactive) in assay [6]. Moreover, the GI50 was 1.37 µM (inactive) in assay [7]; 2.74 µM (inactive) in assay [8]; 1.48 µM (inactive) in [9]; 1.38 µM (inactive) in assay [10]; 4.26 µM (inactive) in [11]; 3.66 µM (inactive) in [12]. The GI50 was 6.17 µM (inactive) in [13]; 5.58 µM (inactive) in assay [14]; 2.89 µM (inactive) in [15]; 7.6 µM (inactive) in assay [16]; 3.66 µM (inactive) in assay [17]; 1.91 µM (inactive) in assay [18]. Also, the GI50 is 4.06 µM (inactive) in assay [19] and 8.02 µM (inactive) in assay [20].
With `CCOC(=O)/C(C#N)=C1/SC(C(=O)N/N=C/c2ccc(OC)cc2)=C(N)N1c1ccccc1`, the GI50 in assay [1] is > 100 µM (inactive); in assay [2] it was > 100 µM (inactive); in assay [3], > 100 µM (inactive); in [4], > 100 µM (inactive); in assay [5], > 100 µM (inactive); in assay [6] it was 3.82 µM (inactive). In addition, the GI50 is 3.1 µM (inactive) in assay [7]; 0.205 µM (active) in assay [8]; > 100 µM (inactive) in assay [9]; > 100 µM (inactive) in assay [10]; > 100 µM (inactive) in [11]; > 100 µM (inactive) in assay [12]. In addition, the GI50 in [13] was 16.1 µM (inactive); in assay [14], 35.6 µM (inactive); in [15], 32.4 µM (inactive); in assay [16], > 100 µM (inactive); in [17] it was > 100 µM (inactive); in assay [18], > 100 µM (inactive). Further, the GI50 in assay [19] and in assay [20] was > 100 µM (inactive) throughout.
In the case of `COc1ccc(/C=N/N=C(N)N)c(C(=O)O)c1OC`, the GI50 in [1] is > 100 µM (inactive); in assay [2], > 100 µM (inactive); in assay [3], > 10 µM (inactive); in assay [4] it was > 100 µM (inactive); in assay [5], > 100 µM (inactive); in assay [7], > 10 µM (inactive). In addition, the GI50 in assay [8], in assay [9], in [10], in [12], in assay [13] and in [14] was > 100 µM (inactive) throughout. For the same molecule, the GI50 in assay [15], in assay [16], in assay [17], in assay [18], in assay [19] and in assay [20] was > 100 µM (inactive) each time.
`CCOC(=O)c1csc(NC(=O)CCN(CC)CC)n1`: the GI50 in [1] was 55 µM (inactive); in [2], 27.5 µM (inactive); in assay [3] it was 33.8 µM (inactive); in assay [5], 39.1 µM (inactive); in [6], 24.5 µM (inactive); in [7] it was 39.7 µM (inactive). Moreover, the GI50 was 71 µM (inactive) in assay [8]; 23.5 µM (inactive) in [9]; 32.7 µM (inactive) in assay [10]; 30.3 µM (inactive) in assay [11]; 30.7 µM (inactive) in assay [12]; > 100 µM (inactive) in assay [13]. In addition, the GI50 is 27.5 µM (inactive) in assay [14]; > 100 µM (inactive) in assay [15]; > 100 µM (inactive) in assay [16]; 27.2 µM (inactive) in assay [17]; 81.3 µM (inactive) in assay [18]; 45 µM (inactive) in assay [19]. For the same molecule, the GI50 in [20] is 35.7 µM (inactive).
